# PubChem BioAssay AID1963825 (Molecular Pharmacology Branch, DTP, NCI, 2024)
# pIC50: −log10 of the molar value. “And” between values parts separate entries of the source, which are not always exact repeats. Equal values may be shown once.
# Assay: Anticancer human tumor 997537-175-T-J1-PDC patient-derived colon adenocarcinoma cell line growth inhibition [POLQ]
# Conditions: 997537-175-T-J1-PDC complex spheroid viability, combination with POLQ inhibitors; for viability, T/C: stronger effect = lower value
# Protocol: Multicellular complex tumor spheroid response to Polymerase (POL) inhibitors (novobiocin, ART-558, RP6685) in combination with a variety of drugs and investigational agents in selected tumor cell lines
# The POL inhibitors (novobiocin, ART-558, and RP6685) were evaluated both individually and in combination with standard of care and investigational anticancer small molecules within a complex spheroid model of solid tumors. . Complex spheroids include a stromal component modeled by human endothelial cells (HUVEC) and fibroblasts modeled by human mesenchymal stem cells (MSCs). The concentration ranges selected for each drug and investigational agent were based upon clinically achievable concentrations if the clinical Cmax of the agent was known.
# Compounds. The drugs and investigational agents: novobiocin (NSC847541), ART-558 (NSC835418), RP-6685 (NSC848927), peposertib (NSC802822), ceralasertib (NSC780249), elimusertib (NSC800525), camonsertib (NSC841442), AZD-1390 (NSC803789), olaparib (NSC753686), talazoparib (NSC767125), rucaparib (NSC756644), sotorasib (NSC818433), MRTX-1133 (NSC836407), SN-38 (NSC673596), topotecan (NSC609699), epotoside (NSC141540), doxorubicin (NSC123127), gemcitabine (NSC613327), 5-fluorouracil (NSC19893), paclitaxel (NSC125973), vemurafenib (NSC761431), MSA-2 (NSC828583), SN-011 (NSC837082), adavosertib (NSC754352), prexasertib (NSC758257), carboplatin (NSC241240) and oxaliplatin (NSC266046), were obtained from the National Cancer Institute (NCI) Developmental Therapeutics Program Chemical Repository (21). The FDA-approved anticancer drug set is available from the Developmental Therapeutics Program at https://dtp.cancer.gov/organization/dscb/obtaining/. […] The stock solutions were prepared in dimethyl sulfoxide (DMSO, Sigma-Aldrich, St. Louis, MO, cat. D2650), except for the platinum compounds which were prepared in saline (Quality Biological, Gaithersburg, MD, cat. 114-055-101), at 800-fold the tested concentration and stored at -70 degrees C prior to their use. All drugs and investigational agents were tested over a range starting from a high concentration at or near the clinical Cmax and decreasing in half-log increments. If the clinical Cmax for an agent had not been determined, the highest concentration tested was 10 microM, except for SN-38, which was tested at a high concentration of 1 microM.
# Cell Culture. All cells were maintained in an incubator at 37 degrees C and 5% CO2 with 95% humidity. The PDC lines were cultured according to standard operating procedures established by the NCI PDMR (https://pdmr.cancer.gov). Table 3 of the manuscript, lists the cell lines along with the number of the three cell types plated to form the mct-spheroids and media for tumor cell growth. After thawing, all PDC lines, except 997537-175-T-J1-PDC and 415267-285-R-J2-PDC, were cultured in Matrigel-coated flasks prepared with a working solution of 1X Ham's F-12 nutrient mix, without supplementation (Thermo Fisher Scientific, cat. 11765054), 100 U/mL penicillin-streptomycin (Thermo Fisher Scientific, cat. 15140122), and 2.5% Matrigel (Corning Inc., Corning, NY, cat. 354248) for the first three passages. The two PDC lines 997537-175-T-J1-PDC and 415267-285-R-J2-PDC were cultured on uncoated flasks. The 857933-349-R-J2-PDC line was cultured in 6C/Colon 1B media containing advanced DMEM/F-12 (Thermo Fisher Scientific, cat. 12634028), 10 mM HEPES (Thermo Fisher Scientific, cat. 15630080), 1X GlutaMAX supplement (Thermo Fisher Scientific, cat. 35050061), 0.1 mg/mL primocin (InvivoGen, San Diego, CA, cat. ant-pm-2), 10% defined fetal bovine serum, heat inactivated (HyClone Laboratories Inc., Logan, UT, cat. SH30070.03HI), 50% L-WRN conditioned media (ATCC, cat. CRL-3276), 1.25 mM N-Acetyl-L-cysteine (Sigma-Aldrich, cat. A9165), 10 mM nicotinamide (Sigma-Aldrich, cat. N0636), 1X B-27 supplement (Thermo Fisher Scientific, cat. 17504044), 1X N-2 supplement (Thermo Fisher Scientific, cat. […]
# 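Note: luminescence signal used as a surrogate for viable cells; spheroids exposed to drugs for seven days before readout.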
smiles,measurement,setting,value
C#Cc1c(F)ccc2cc(O)cc(-c3ncc4c(N5CC6CCC(C5)N6)nc(OCC56CCCN5CC(F)C6)nc4c3F)c12 (configuration not stated),"viability, T/C",compound 0.0316 µM,105% and 99.2% and 101%
same,"viability, T/C",compound 0.1 µM,106% and 111% and 92.5%
same,"viability, T/C",compound 0.316 µM,92.2% and 97.5% and 113%
same,"viability, T/C",compound 1 µM,105% and 93.2% and 113%
same,"viability, T/C",compound 3.16 µM,110% and 93.3% and 94.4%
same,"viability, T/C",compound 10 µM,106% and 94.6% and 107%
same,pIC50,curve of compound,< 5.00
CC1COCCN1c1cc(C2(O)CC3CCC(C2)O3)c2cnn(-c3ccn[nH]3)c2n1 (configuration not stated),"viability, T/C",compound 0.0316 µM,80.8% and 88.2% and 99.8%
same,"viability, T/C",compound 0.1 µM,88.8% and 81.9% and 65.3%
same,"viability, T/C",compound 0.316 µM,57.4% and 42.1% and 58.8%
same,"viability, T/C",compound 1 µM,49% and 58.5% and 56.2%
same,"viability, T/C",compound 3.16 µM,61.2% and 67.5% and 61.5%
same,"viability, T/C",compound 10 µM,62.1% and 47.6% and 48.3%
same,pIC50,curve of compound,< 5.00
COC1C(OC(N)=O)C(O)C(Oc2ccc3c(O)c(NC(=O)c4ccc(O)c(CC=C(C)C)c4)c(=O)oc3c2C)OC1(C)C (configuration not stated),"viability, T/C",compound 0.1 µM,97.2% [middle of 13 runs]
same,"viability, T/C",compound 0.316 µM,97.4% [middle of 13 runs]
same,"viability, T/C",compound 1 µM,95.6% [middle of 13 runs]
same,pIC50,"compound alone, run of 11/27/2023",< 5.00
O=C(Nc1ccc(O)c(NS(=O)(=O)c2ccc(F)cc2)c1)c1ccc(-c2ccccc2)cc1,"viability, T/C",compound 0.0316 µM,103% and 89.4% and 123%
same,"viability, T/C",compound 0.1 µM,101% and 92.4% and 98.4%
same,"viability, T/C",compound 0.316 µM,113% and 97.4% and 81.8%
same,"viability, T/C",compound 1 µM,88.3% and 109% and 103%
same,"viability, T/C",compound 3.16 µM,99.2% and 116% and 91.7%
same,"viability, T/C",compound 10 µM,98.9% and 103% and 91.2%
same,pIC50,curve of compound,< 5.00
CCc1cc2c(N3CCc4c(cc(Cn5ccnc5)cc4-c4cn(C)nc4C(F)(F)F)C3=O)cc(C)nc2c(OC)n1 + COC1C(OC(N)=O)C(O)C(Oc2ccc3c(O)c(NC(=O)c4ccc(O)c(CC=C(C)C)c4)c(=O)oc3c2C)OC1(C)C,pIC50,"curve of first compound, second compound 0.0316 µM",< 5.00
same,pIC50,"curve of first compound, second compound 0.1 µM",5.20
same,pIC50,"curve of first compound, second compound 0.316 µM",< 5.00
same,pIC50,"curve of first compound, second compound 1 µM",< 5.00
same,pIC50,"curve of first compound, second compound 3.16 µM",< 5.00
same,pIC50,"curve of first compound, second compound 10 µM",< 5.00
same,"viability, T/C","second compound 0.0316 µM, first compound 0.0316 µM",95.1%
same,"viability, T/C","second compound 0.0316 µM, first compound 0.1 µM",123%
same,"viability, T/C","second compound 0.0316 µM, first compound 0.316 µM",88.9%
same,"viability, T/C","second compound 0.0316 µM, first compound 1 µM",95.2%
same,"viability, T/C","second compound 0.0316 µM, first compound 3.16 µM",69.1%
same,"viability, T/C","second compound 0.0316 µM, first compound 10 µM",55.2%
same,"viability, T/C","second compound 0.1 µM, first compound 0.0316 µM",106%
same,"viability, T/C","second compound 0.1 µM, first compound 0.1 µM",93.3%
same,"viability, T/C","second compound 0.1 µM, first compound 0.316 µM",75.1%
same,"viability, T/C","second compound 0.1 µM, first compound 1 µM",68.8%
same,"viability, T/C","second compound 0.1 µM, first compound 3.16 µM",70%
same,"viability, T/C","second compound 0.1 µM, first compound 10 µM",39.1%
same,"viability, T/C","second compound 0.316 µM, first compound 0.0316 µM",110%
same,"viability, T/C","second compound 0.316 µM, first compound 0.1 µM",107%
same,"viability, T/C","second compound 0.316 µM, first compound 0.316 µM",93.5%
same,"viability, T/C","second compound 0.316 µM, first compound 1 µM",80.7%
same,"viability, T/C","second compound 0.316 µM, first compound 3.16 µM",76.1%
same,"viability, T/C","second compound 0.316 µM, first compound 10 µM",66.7%
same,"viability, T/C","second compound 1 µM, first compound 0.0316 µM",102%
same,"viability, T/C","second compound 1 µM, first compound 0.1 µM",114%
same,"viability, T/C","second compound 1 µM, first compound 0.316 µM",86.4%
same,"viability, T/C","second compound 1 µM, first compound 1 µM",61.1%
same,"viability, T/C","second compound 1 µM, first compound 3.16 µM",64.2%
same,"viability, T/C","second compound 1 µM, first compound 10 µM",60.1%
same,"viability, T/C","second compound 3.16 µM, first compound 0.0316 µM",113%
same,"viability, T/C","second compound 3.16 µM, first compound 0.1 µM",104%
same,"viability, T/C","second compound 3.16 µM, first compound 0.316 µM",100%
same,"viability, T/C","second compound 3.16 µM, first compound 1 µM",68.6%
same,"viability, T/C","second compound 3.16 µM, first compound 3.16 µM",49.8%
same,"viability, T/C","second compound 3.16 µM, first compound 10 µM",65.6%
same,"viability, T/C","second compound 10 µM, first compound 0.0316 µM",92.1%
same,"viability, T/C","second compound 10 µM, first compound 0.1 µM",88.7%
same,"viability, T/C","second compound 10 µM, first compound 0.316 µM",74.3%
same,"viability, T/C","second compound 10 µM, first compound 1 µM",66.9%
same,"viability, T/C","second compound 10 µM, first compound 3.16 µM",54.5%
same,"viability, T/C","second compound 10 µM, first compound 10 µM",59.8%
